# Reference: ChEMBL document CHEMBL5154716, “Neuropeptide B/W receptor 1 peptidomimetic agonists: Structure-activity relationships and plasma stability” (Eur J Med Chem, 2022)
# Non-standard residues stand in square brackets, D forms with d. Residues, ends and D or L forms follow the SMILES beside them. *: point of attachment. Propanoyl(3-indol-3-yl) = O=C(CCc1c[nH]c2ccccc12)*; Trp(1-Me) = Cn1cc(C[C@H](N)C(=O)O)c2ccccc21; Tle = CC(C)(C)[C@H](N)C(=O)O; Ava = NCCCCC(=O)O
# Columns and labels:
# [1] = molecular target: T1, Neuropeptides B/W receptor type 1 (Homo sapiens) (UniProt P48145); experiment: Antagonist activity at human NPBWR1 expressed in CHO-RD-HGA16 cells at 10 uM measured by calcium mobilization assay relative to control; format: functional, cell-based; set-up: scale not given: the % may be the effect or the level left; settings: filed as antagonist
# T1 sequence (whole entry): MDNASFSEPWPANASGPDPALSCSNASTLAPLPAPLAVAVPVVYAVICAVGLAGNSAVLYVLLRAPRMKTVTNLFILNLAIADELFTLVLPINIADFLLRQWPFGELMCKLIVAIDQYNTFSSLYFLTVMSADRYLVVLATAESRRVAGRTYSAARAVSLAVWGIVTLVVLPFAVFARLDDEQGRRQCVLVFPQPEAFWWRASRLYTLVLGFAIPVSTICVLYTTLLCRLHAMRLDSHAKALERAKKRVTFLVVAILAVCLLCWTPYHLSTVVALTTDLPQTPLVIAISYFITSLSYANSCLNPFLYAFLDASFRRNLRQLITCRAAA
# [2] = molecular target: T2, Neuropeptides B/W receptor type 1 (Homo sapiens, UniProt P48145); experiment: (§1) Agonist activity at human NPBWR1 expressed in CHO-RD-HGA16 cells measured by calcium mobilization assay; format: functional, cell-based
# T2 sequence (P48145 whole entry): T1 sequence (whole entry)
# [3] = molecular target: T1, Neuropeptides B/W receptor type 1 (Homo sapiens); experiment: Agonist activity at human NPBWR1 expressed in CHO-RD-HGA16 cells measured by calcium mobilization assay relative to control; format: functional, cell-based
# [4] = molecular target: T1, Neuropeptides B/W receptor type 1 (Homo sapiens); experiment: as §1; format: functional, cell-based; settings: filed as agonist
# [5] = molecular target: T2, Neuropeptides B/W receptor type 1; experiment: Antagonist activity at human NPBWR1 expressed in CHO-RD-HGA16 cells measured by calcium mobilization assay; format: functional, cell-based
# [6] = Metabolic stability in male Sprague-Dawley rat plasma assessed as compound remaining at 1 uM measured after […] by LC-MS/MS analysis; format: ADME, cell-free; settings: read-out: Stability
# [7] = Metabolic stability in male Sprague-Dawley rat plasma assessed as half-life at 1 uM measured after 240 mins by LC-MS/MS analysis; format: ADME, cell-free
# [8] = molecular target: T2, Neuropeptides B/W receptor type 1; experiment: Agonist activity at human NPBWR1 expressed in CHO cells measured by LANCE Ultra cAMP kit-based TR-FRET assay; format: functional, cell-based
structure (smiles),measurement,setting,value
CCCCCCCCCCCCCCCC(=O)NCCCC[C@@H](NC(=O)[C@H](CCCCN)NC(=O)[C@H](CCCCN)NC(=O)[C@H](CCCCN)NC(=O)[C@H](Cc1ccc(O)cc1)NC(=O)[C@@H](N)Cc1c[nH]c2ccccc12)C(=O)N[C@@H](CCCCN)C(=O)NCCCCC(=O)NCC(=O)N[C@@H](CCCNC(=N)N)C(=O)N[C@@H](C)C(=O)N[C@@H](C)C(=O)NCC(=O)N[C@@H](CC(C)C)C(=O)N[C@@H](CC(C)C)C(N)=O,Activity,[1],95%
CC(C)C[C@H](NC(=O)CNC(=O)[C@H](C)NC(=O)[C@H](C)NC(=O)[C@H](CCCNC(=N)N)NC(=O)CCCCNC(=O)CCCCNC(=O)CCCCNC(=O)[C@H](CCCCN)NC(=O)[C@H](Cc1ccc(O)cc1)NC(=O)[C@@H](N)Cc1c[nH]c2ccccc12)C(=O)N[C@H](CC(C)C)C(N)=O,EC50,[2],463 nM
same,Emax,[3]; filed as agonist,57%
CC(C)C[C@H](NC(=O)CNC(=O)[C@H](C)NC(=O)[C@H](C)NC(=O)[C@H](CCCNC(=N)N)NC(=O)CNC(=O)CCCCNC(=O)CCCCNC(=O)CCCCNC(=O)[C@H](CCCCN)NC(=O)[C@@H](NC(=O)[C@@H](N)Cc1c[nH]c2ccccc12)[C@@H](C)O)C(=O)N[C@H](C(N)=O)C(C)(C)C (H-WTK[Ava][Ava][Ava]GRAAGL[Tle]-NH2),EC50,[2],479 nM
CSCC[C@H](NC(=O)[C@H](CC(C)C)NC(=O)[C@H](CC(C)C)NC(=O)CNC(=O)[C@H](C)NC(=O)[C@H](C)NC(=O)[C@H](CCCNC(=N)N)NC(=O)CNC(=O)[C@@H](NC(=O)[C@@H](NC(=O)[C@H](Cc1cnc[nH]1)NC(=O)[C@H](Cc1ccc(O)cc1)NC(=O)[C@H](CCCNC(=N)N)NC(=O)[C@@H]1CCCN1C(=O)[C@H](CO)NC(=O)[C@H](C)NC(=O)[C@@H](NC(=O)[C@H](Cc1cnc[nH]1)NC(=O)[C@H](CCCCN)NC(=O)[C@H](Cc1ccc(O)cc1)NC(=O)[C@@H](N)Cc1c[nH]c2ccccc12)C(C)C)[C@@H](C)O)C(C)C)C(=O)NCC(=O)N[C@@H](CC(C)C)C(N)=O,EC80,[4],20 nM
same,Emax,[3]; filed as agonist,100%
CC(C)C[C@H](NC(=O)[C@H](CC(C)C)NC(=O)CNC(=O)[C@H](C)NC(=O)[C@H](C)NC(=O)[C@@H](CCCNC(=N)N)NC(=O)CCCCNC(=O)CCCCNC(=O)CCCCNC(=O)[C@H](CCCCN)NC(=O)[C@H](Cc1ccc(O)cc1)NC(=O)[C@@H](N)Cc1c[nH]c2ccccc12)C(N)=O,EC50,[2],> 10000 nM
CC(C)C[C@H](NC(=O)[C@H](CC(C)C)NC(=O)CNC(=O)[C@H](C)NC(=O)[C@H](C)NC(=O)[C@H](CCCNC(=N)N)NC(=O)CNC(=O)CCCCNC(=O)CCCCNC(=O)CCCCNC(=O)[C@H](CCCCN)NC(=O)[C@H](Cc1ccc(O)cc1)NC(=O)[C@H](Cc1c[nH]c2ccccc12)NC(=O)[C@@H](N)Cc1cn(C)c2ccccc12)C(N)=O (H-[Trp(1-Me)]WYK[Ava][Ava][Ava]GRAAGLL-NH2),EC50,[2],> 10000 nM
same,IC50,[5],545 nM
CC(C)C[C@H](NC(=O)CNC(=O)[C@H](C)NC(=O)[C@H](C)NC(=O)[C@H](C)NC(=O)CNC(=O)CCCCNC(=O)CCCCNC(=O)CCCCNC(=O)[C@H](CCCCN)NC(=O)[C@H](Cc1ccc(O)cc1)NC(=O)[C@@H](N)Cc1c[nH]c2ccccc12)C(=O)N[C@@H](CO)C(=O)N[C@@H](CO)C(N)=O (H-WYK[Ava][Ava][Ava]GAAAGLSS-NH2),EC50,[2],> 10000 nM
CC(C)C[C@H](NC(=O)CNC(=O)[C@H](C)NC(=O)[C@H](C)NC(=O)[C@H](CCCNC(=N)N)NC(=O)CNC(=O)CCCCNC(=O)CCCCNC(=O)CCCCNC(=O)[C@H](C)NC(=O)[C@H](Cc1ccc(O)cc1)NC(=O)[C@@H](N)Cc1c[nH]c2ccccc12)C(=O)N[C@@H](CO)C(=O)N[C@@H](CO)C(N)=O (H-WYA[Ava][Ava][Ava]GRAAGLSS-NH2),EC50,[2],478 nM
CC(C)C[C@H](NC(=O)CNC(=O)[C@H](CO)NC(=O)[C@H](CC(C)C)NC(=O)[C@H](CC(C)C)NC(=O)CNC(=O)[C@H](C)NC(=O)[C@H](C)NC(=O)[C@H](CCCNC(=N)N)NC(=O)CNC(=O)[C@@H](NC(=O)[C@H](CO)NC(=O)[C@H](Cc1ccc(O)cc1)NC(=O)[C@H](CO)NC(=O)[C@H](CO)NC(=O)[C@H](Cc1cnc[nH]1)NC(=O)CNC(=O)[C@H](C)NC(=O)[C@H](C)NC(=O)[C@@H]1CCCN1C(=O)[C@H](CCCCN)NC(=O)[C@H](Cc1ccc(O)cc1)NC(=O)[C@@H](N)Cc1c[nH]c2ccccc12)C(C)C)C(N)=O,"remaining at 0.25 h, 1 µM",[6],48%
CC(C)C[C@H](NC(=O)[C@H](CC(C)C)NC(=O)CNC(=O)[C@H](C)NC(=O)[C@H](C)NC(=O)[C@H](CCCNC(=N)N)NC(=O)CNC(=O)CCCCNC(=O)CCCCNC(=O)CCCCNC(=O)[C@H](CCCCN)NC(=O)[C@H](NC(=O)[C@@H](N)Cc1c[nH]c2ccccc12)[C@@H](C)O)C(N)=O,EC50,[2],> 10000 nM
same,Activity,[1],81%
CC(C)C[C@H](NC(=O)[C@H](CC(C)C)NC(=O)CNC(=O)[C@H](C)NC(=O)[C@@H](C)NC(=O)[C@H](CCCNC(=N)N)NC(=O)CCCCNC(=O)CCCCNC(=O)CCCCNC(=O)[C@H](CCCCN)NC(=O)[C@H](Cc1ccc(O)cc1)NC(=O)[C@@H](N)Cc1c[nH]c2ccccc12)C(N)=O,EC50,[2],578 nM
same,Emax,[3],33%
CC(C)C[C@H](NC(=O)[C@H](CC(C)C)NC(=O)CNC(=O)[C@H](C)NC(=O)[C@H](C)NC(=O)[C@H](CCCNC(=N)N)NC(=O)CNC(=O)CCCCNC(=O)CCCCNC(=O)CCCCNC(=O)[C@H](CCCCN)NC(=O)[C@H](Cc1ccc(O)cc1)NC(=O)[C@H](Cc1c[nH]c2ccccc12)NC(=O)CCc1c[nH]c2ccccc12)C(N)=O ({Propanoyl(3-indol-3-yl)}-WYK[Ava][Ava][Ava]GRAAGLL-NH2),EC50,[2],8 nM
same,half-life at 1 µM,[7],39.1 min
same,EC50,[8],2.7 nM
same,"remaining at 0.25 h, 1 µM",[6],86%
CC(C)C[C@H](NC(=O)CNC(=O)[C@H](C)NC(=O)[C@H](C)NC(=O)[C@H](CCCNC(=N)N)NC(=O)CNC(=O)CCCCNC(=O)CCCCNC(=O)CCCCNC(=O)[C@H](C)NC(=O)[C@@H](N)Cc1c[nH]c2ccccc12)C(=O)N[C@@H](CC(C)C)C(=O)N[C@@H](CO)C(N)=O (H-WA[Ava][Ava][Ava]GRAAGLLS-NH2),EC50,[2],> 10000 nM
same,IC50,[5],840 nM
same,Activity,[1],95%
CCCCCCCCCCCCCCCC(=O)NCCCC[C@H](NC(=O)[C@H](CCCCN)NC(=O)[C@H](CCCCN)NC(=O)[C@H](CCCCN)NC(=O)[C@H](Cc1ccc(O)cc1)NC(=O)[C@@H](N)Cc1c[nH]c2ccccc12)C(=O)N[C@@H](CCCCN)C(=O)NCCCCC(=O)NCC(=O)N[C@@H](CCCNC(=N)N)C(=O)N[C@@H](C)C(=O)N[C@@H](C)C(=O)NCC(=O)N[C@@H](CC(C)C)C(=O)N[C@@H](CC(C)C)C(N)=O,EC50,[2]; cho-rd-hga16,> 10000 nM
same,IC50,[5]; cho-rd-hga16,406 nM
CC(C)C[C@H](NC(=O)[C@@H](CC(C)C)NC(=O)CNC(=O)[C@H](C)NC(=O)[C@H](C)NC(=O)[C@H](CCCNC(=N)N)NC(=O)CCCCNC(=O)CCCCNC(=O)CCCCNC(=O)[C@H](CCCCN)NC(=O)[C@H](Cc1ccc(O)cc1)NC(=O)[C@@H](N)Cc1c[nH]c2ccccc12)C(N)=O,EC50,[2],530 nM
same,Emax,[3],38%
